Earlier results on one molecule are cited in US12649758B2, “Industrial method for simultaneously preparing Stevia rebaudiana chlorogenic acid and stevioside” (Chenguang Biotech Group Co., Ltd., priority 2018, dated 2026).

`C=C1C[C@@]23CC[C@H]4[C@@](C)(CCC[C@@]4(C)C(=O)O[C@@H]4O[C@H](CO)[C@@H](O)[C@H](O)[C@H]4O)[C@@H]2CC[C@]1(O[C@@H]1O[C@H](CO)[C@@H](O)[C@H](O)[C@H]1O[C@@H]1O[C@H](CO)[C@@H](O)[C@H](O)[C@H]1O)C3` [Stevioside, stevioside]: the “sweetness relative to sucrose” value is listed as 300 to 500 times of sucrose.
